Experimental data from patent US20150328245A1, “Agents for Eliminating Tumour-Initiating Cells” (priority 2012, published 2015).

Legend:
cancer cell lines = test: In vitro colorimetric cell death assay (MTT), overall statement; format: cell-based
Method: It's an in vitro colorimetric assay for assessing cell viability where the cells are grown in Two-dimensional surface.
An exemplary procedure for the assay follows. Cancer cells and normal cells were plated in a 96 well plate as per predetermined plating efficiency. The plate was incubated for 24 hours in a 5% CO2 atmosphere at 37 degrees Celsius, a range of concentrations of the compounds I-1, I-2 and I-3 as well as cisplatin (known chemotherapeutic agents) were added to the separate wells, the plate was incubated further for 48 hours in a 5% CO2 atmosphere, the plate was centrifuged twice at 3000 rpm for 3 minutes, the supernatant fluid was discarded, 100 uL of 0.5 mg/mL MTT solution was added and the plate was incubated for 4 hours in a 5% CO2 atmosphere at 37 degrees Celsius. The plate was then centrifuged twice at 3000 rpm for 3 minutes, supernatant, was aspirated very carefully, 200 uL DMSO was added to each well to solubilize MTT crystals and mixed well by shaking the plate, the plate was incubated for 10 minutes in a 5% CO2 atmosphere at 37 degrees Celsius, the plate placed on the shaker of an ELISA plate reader and the absorbance at 570 nm was measured, then the percentage of viable cells remaining was calculated by first subtracting the background absorbance then comparing to the absorbance of a non-drug-treated cell sample, and the results were plotted on a graph to determine the IC50 for the compounds and cisplatin.

T47D = test: In vitro soft agar colony forming growth assay; format: cell-based; conditions: Homo sapiens, 168 h, one week
Method: (§1) The Soft Agar Assay for Colony Formation is considered the most stringent assay for detecting malignant transformation of cells. In this assay the cells are cultured in medium with low percentage of agar.
(§2) An exemplary procedure for the assay follows.

LNCaP = test: In vitro soft agar colony forming growth assay; format: cell-based; conditions: Homo sapiens, 168 h, one week
Method: as §1, §2

MDAMB231 = test: In vitro soft agar colony forming growth assay; format: cell-based; conditions: Homo sapiens, MDA-MB-231, 168 h; MDAMB231, soft agar, one week; read-out: IC 50
Method: as §1, §2

DU145 = test: In vitro soft agar colony forming growth assay; format: cell-based; conditions: Homo sapiens, DU-145, 168 h, one week
Method: as §1, §2

MCF-7 = test: In vitro soft agar colony forming growth assay; format: cell-based; conditions: Homo sapiens, MCF7, 168 h; MCF-7, soft agar, one week
Method: as §1, §2

PC3 = test: In vitro soft agar colony forming growth assay; format: cell-based; conditions: Homo sapiens, PC-3, 168 h, one week
Method: as §1, §2

[1] = In vivo maximum tolerated dose assay for compound I-2; design: species or system BALB/c mice
Method: In vivo maximum tolerated dose (MTD) toxicity assay was carried out to evaluate the highest dose of a pharmaceutical treatment that will produce the desired effect without unacceptable toxicity. The purpose of administering MTD is to determine whether long-term exposure to a compound might lead to unacceptable adverse health effects in a subject, when the level of exposure is not sufficient to cause premature mortality due to short-term toxic effects.
An exemplary procedure for the in vivo maximum tolerated dose toxicity assay follows. A statistically appropriate number of FEMALE BALB/c MICE were interperitoneally treated with the compound I-2 at three different dose levels 3 mg/kg, 1 mg/kg, and 0.3 mg/kg. Body weight and clinical sign of all the animals were observed daily during dosing and post dosing period.

COc1cc2c(OC3OCC(OC)C(OC)C3O)c3c(c(-c4ccc5c(c4)OCO5)c2cc1OC)C(=O)OC3 (stereo not drawn) [I-2]
anticancer activity in cancer cell lines as compared to cisplatin (cancer cell lines): high anticancer activity
IC50 (T47D): 2390 nM
IC50 (LNCaP): 700 nM
IC50 (MDAMB231): 3630 nM
IC50 (DU145): 3160 nM
IC50 (MCF-7): 620 nM
IC50 (PC3): 260 nM
toxicity finding of the given dose ([1]; 0.3 mg/kg q7d×4 i.p.): safe
toxicity finding of the given dose ([1]; 1 mg/kg q7d×4 i.p.): safe
mortality ([1]; 3 mg/kg q7d×4 i.p.): more than one mortality
toxicity finding of the given dose ([1]; 3 mg/kg q7d×4 i.p.): toxic
Mean body weight ([1]; G1 3 mg/kg q7dX4, day 1): 2 g
Mean body weight ([1]; G1 3 mg/kg q7dX4, day 2): 2 g
Mean body weight ([1]; G1 3 mg/kg q7dX4, day 3): 2 g
Mean body weight ([1]; G1 3 mg/kg q7dX4, day 4): 2 g
Mean body weight ([1]; G1 3 mg/kg q7dX4, day 5): 2 g
Mean body weight ([1]; G1 3 mg/kg q7dX4, day 6): 2 g
Mean body weight ([1]; G1 3 mg/kg q7dX4, day 7): 2 g
Mean body weight ([1]; G1 3 mg/kg q7dX4, day 8): 2 g
Mean body weight ([1]; G1 3 mg/kg q7dX4, day 9): 2 g
Mean body weight ([1]; G1 3 mg/kg q7dX4, day 10): 2 g
Mean body weight ([1]; G1 3 mg/kg q7dX4, day 11): 2 g
Mean body weight ([1]; G1 3 mg/kg q7dX4, day 12): 2 g
Mean body weight ([1]; G1 3 mg/kg q7dX4, day 13): 2 g
Mean body weight ([1]; G1 3 mg/kg q7dX4, day 14): 2 g
Mean body weight ([1]; G1 3 mg/kg q7dX4, day 15): 2 g
Mean body weight ([1]; G1 3 mg/kg q7dX4, day 16): 2 g
Mean body weight ([1]; G1 3 mg/kg q7dX4, day 17): 2 g
Mean body weight ([1]; G1 3 mg/kg q7dX4, day 18): 2 g
Mean body weight ([1]; G1 3 mg/kg q7dX4, day 19): 2 g
Mean body weight ([1]; G1 3 mg/kg q7dX4, day 20): 2 g
Mean body weight ([1]; G1 3 mg/kg q7dX4, day 21): 2 g
Mean body weight ([1]; G1 3 mg/kg q7dX4, day 22): 2 g
Mean body weight ([1]; G1 3 mg/kg q7dX4, day 23): 2 g
Mean body weight ([1]; G1 3 mg/kg q7dX4, day 24): 2 g
Mean body weight ([1]; G1 3 mg/kg q7dX4, day 25): 2 g
Mean body weight ([1]; G1 3 mg/kg q7dX4, day 26): 2 g
Mean body weight ([1]; G1 3 mg/kg q7dX4, day 27): 2 g
Mean body weight ([1]; G1 3 mg/kg q7dX4, day 28): 2 g
Mean body weight ([1]; G1 3 mg/kg q7dX4, day 29): 2 g
Mean body weight ([1]; G2 1 mg/kg q7dX4, day 1): 23. g
Mean body weight ([1]; G2 1 mg/kg q7dX4, day 2): 23. g
Mean body weight ([1]; G2 1 mg/kg q7dX4, day 3): 23. g
Mean body weight ([1]; G2 1 mg/kg q7dX4, day 4): 24. g
Mean body weight ([1]; G2 1 mg/kg q7dX4, day 5): 24. g
Mean body weight ([1]; G2 1 mg/kg q7dX4, day 6): 24. g
Mean body weight ([1]; G2 1 mg/kg q7dX4, day 7): 24. g
Mean body weight ([1]; G2 1 mg/kg q7dX4, day 8): 24. g
Mean body weight ([1]; G2 1 mg/kg q7dX4, day 9): 24. g
Mean body weight ([1]; G2 1 mg/kg q7dX4, day 10): 24. g
Mean body weight ([1]; G2 1 mg/kg q7dX4, day 11): 24. g
Mean body weight ([1]; G2 1 mg/kg q7dX4, day 12): 24. g
Mean body weight ([1]; G2 1 mg/kg q7dX4, day 13): 25. g
Mean body weight ([1]; G2 1 mg/kg q7dX4, day 14): 24. g
Mean body weight ([1]; G2 1 mg/kg q7dX4, day 15): 24. g
Mean body weight ([1]; G2 1 mg/kg q7dX4, day 16): 25. g
Mean body weight ([1]; G2 1 mg/kg q7dX4, day 17): 25. g
Mean body weight ([1]; G2 1 mg/kg q7dX4, day 18): 25. g
Mean body weight ([1]; G2 1 mg/kg q7dX4, day 19): 25. g
Mean body weight ([1]; G2 1 mg/kg q7dX4, day 20): 25. g
Mean body weight ([1]; G2 1 mg/kg q7dX4, day 21): 25. g
Mean body weight ([1]; G2 1 mg/kg q7dX4, day 22): 25. g
Mean body weight ([1]; G2 1 mg/kg q7dX4, day 23): 25. g
Mean body weight ([1]; G2 1 mg/kg q7dX4, day 24): 25. g
Mean body weight ([1]; G2 1 mg/kg q7dX4, day 25): 25. g
Mean body weight ([1]; G2 1 mg/kg q7dX4, day 26): 26. g
Mean body weight ([1]; G2 1 mg/kg q7dX4, day 27): 25. g
Mean body weight ([1]; G2 1 mg/kg q7dX4, day 28): 25. g
Mean body weight ([1]; G2 1 mg/kg q7dX4, day 29): 25. g
Mean body weight ([1]; G3 0.3 mg/kg q7dX4, day 1): 2 g
Mean body weight ([1]; G3 0.3 mg/kg q7dX4, day 2): 2 g
Mean body weight ([1]; G3 0.3 mg/kg q7dX4, day 3): 2 g
Mean body weight ([1]; G3 0.3 mg/kg q7dX4, day 4): 2 g
Mean body weight ([1]; G3 0.3 mg/kg q7dX4, day 5): 2 g
Mean body weight ([1]; G3 0.3 mg/kg q7dX4, day 6): 2 g
Mean body weight ([1]; G3 0.3 mg/kg q7dX4, day 7): 2 g
Mean body weight ([1]; G3 0.3 mg/kg q7dX4, day 8): 2 g
Mean body weight ([1]; G3 0.3 mg/kg q7dX4, day 9): 2 g
Mean body weight ([1]; G3 0.3 mg/kg q7dX4, day 10): 2 g
Mean body weight ([1]; G3 0.3 mg/kg q7dX4, day 11): 2 g
Mean body weight ([1]; G3 0.3 mg/kg q7dX4, day 12): 2 g
Mean body weight ([1]; G3 0.3 mg/kg q7dX4, day 13): 2 g
Mean body weight ([1]; G3 0.3 mg/kg q7dX4, day 14): 2 g
Mean body weight ([1]; G3 0.3 mg/kg q7dX4, day 15): 2 g
Mean body weight ([1]; G3 0.3 mg/kg q7dX4, day 16): 2 g
Mean body weight ([1]; G3 0.3 mg/kg q7dX4, day 17): 2 g
Mean body weight ([1]; G3 0.3 mg/kg q7dX4, day 18): 2 g
Mean body weight ([1]; G3 0.3 mg/kg q7dX4, day 19): 2 g
Mean body weight ([1]; G3 0.3 mg/kg q7dX4, day 20): 2 g
Mean body weight ([1]; G3 0.3 mg/kg q7dX4, day 21): 2 g
Mean body weight ([1]; G3 0.3 mg/kg q7dX4, day 22): 2 g
Mean body weight ([1]; G3 0.3 mg/kg q7dX4, day 23): 2 g
Mean body weight ([1]; G3 0.3 mg/kg q7dX4, day 24): 2 g
Mean body weight ([1]; G3 0.3 mg/kg q7dX4, day 25): 2 g
Mean body weight ([1]; G3 0.3 mg/kg q7dX4, day 26): 2 g
Mean body weight ([1]; G3 0.3 mg/kg q7dX4, day 27): 2 g
Mean body weight ([1]; G3 0.3 mg/kg q7dX4, day 28): 2 g
Mean body weight ([1]; G3 0.3 mg/kg q7dX4, day 29): 2 g
body weight / growth pattern ([1]; group G1 3 mg/kg q7d×4): decreased body weight after first treatment then they showed normal growth pattern
Percentage Body weight change ([1]; group G1 3 mg/kg q7d×4, day 2): −3.2%
body weight / growth pattern ([1]; group G2 1 mg/kg q7d×4): normal growth pattern throughout the experimental period
body weight gain compared to other treatment groups ([1]; group G2 1 mg/kg q7d×4): maximum body weight gain
body weight / growth pattern ([1]; group G3 0.3 mg/kg q7d×4): decreased body weight after first treatment then they showed normal growth pattern
body weight gain as compared to group G1 ([1]; group G3 0.3 mg/kg q7d×4): marginal body weight gain
Percentage Body weight change ([1]; group G3 0.3 mg/kg q7d×4, day 3): −3.8%
